Patent US20160106439A1, “PNEUMATIC TOURNIQUET” (BIONUMERIK PHARMACEUTICALS, INC., priority 2013, published 2016)
“Also recorded” adds a separate entry of the source.

How the values were obtained:
Recombinant human ERCC1 = biological target: T1, Recombinant human ERCC1 (Homo sapiens, UniProt P07992); test: Tavocept-derived mesna adducts on ERCC1 (trypsin digest, LC-MS); assay type: binding; details: 20 mM Tavocept, LC-MS of tryptic fragments
T1 construct: 6xHis (N); purchased Creative BioMart; host or cells: E. coli
T1 sequence (P07992 whole entry, the tested form may be a part): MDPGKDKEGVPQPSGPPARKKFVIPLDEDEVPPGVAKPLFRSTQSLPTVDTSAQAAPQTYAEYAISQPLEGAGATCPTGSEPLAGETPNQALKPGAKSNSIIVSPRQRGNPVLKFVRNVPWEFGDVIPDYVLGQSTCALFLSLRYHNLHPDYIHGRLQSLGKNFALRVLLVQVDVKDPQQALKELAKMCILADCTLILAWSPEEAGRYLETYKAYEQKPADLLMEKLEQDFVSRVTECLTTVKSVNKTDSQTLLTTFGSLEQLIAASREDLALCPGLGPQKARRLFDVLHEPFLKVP
Method: Recombinant human ERCC1 (1 mg; 27.8 nanomoles, Creative BioMart) was reduced using a vast excess of dithiothreitol (DTT, 100 μL of a 500 mM stock) in ammonium bicarbonate (40 mM, pH 8.0) at 37° C. for 75 minutes (total reaction volume was 900 μL). […] Each 800 μL reaction was then chromatographed over a NAP10 column. This step removed unreacted Tavocept and was used for the buffer control simply to ensure that both samples received the same handling/manipulation during the course of the experiment. The elution volume from each NAP10 column was 1.2 mL. […] Trypsin digestion reactions were incubated for 1 hour at 30° C. and then for 17 hours at room temperature (23° C.). Following the Trypsin digest, the samples were lyophilized to dryness overnight and then resuspended in a volume of approximately 100 μL water and analyzed using LC-MS. A Symmetry C18 HPLC column (Waters, Franklin, Mass.; 3.5 μm; 4.6 mm×75 mm) and a Waters Alliance liquid chromatography system (Waters 2695, Franklin, Mass., USA) coupled to a Micromass single quadropole mass detector (Micromass ZMD, Manchester, UK) were used to analyze fragments from trypsin-digested human ERCC1. The mobile phase contained 0.1% of formic acid throughout the run and the flow rate was 0.35 mL/min. […]

[1] = biological target: T2, Recombinant human peroxiredoxin 1 (Homo sapiens, UniProt Q06830); test: Tavocept-derived mesna adducts on Prx 1 (digest, LC-MS); assay type: binding
T2 construct: purchased SigmaAldrich
T2 sequence (Q06830 1-199): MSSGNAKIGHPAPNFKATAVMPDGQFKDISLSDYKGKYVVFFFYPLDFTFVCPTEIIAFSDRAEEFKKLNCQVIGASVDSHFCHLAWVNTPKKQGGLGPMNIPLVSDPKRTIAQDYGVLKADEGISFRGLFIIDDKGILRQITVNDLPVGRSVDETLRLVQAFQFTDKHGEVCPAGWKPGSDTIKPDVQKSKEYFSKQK
Method: Recombinant human peroxiredoxin 1 (purchased from SigmaAldrich; 333 μg; 0.015 micromoles) was reduced using an excess of dithiothreitol (DTT; 35 micromoles) in NH4HCO3 buffer (40 mM, pH 8.0) at 37° C. for 50 minutes (total reaction volume was 750 μL; final Prx concentration was 20 μM; and final DTT concentration was 46 mM). […] (total reaction volume was 500 μL). After 16-18 hours incubation, each reaction was removed and chromatographed using G25 Sephadex columns.
In brief, the G25 chromatographed Prx1 incubation reactions were digested with Trypsin Gold. Trypsin Gold was dissolved in 400 μL of NH4HCO3 and 100 μL of acetonitrile. A 100-150 μL volume of this Trypsin Gold stock was then added to 500 μL of the aforementioned final sample with 75 μL of acetonitrile and then the reaction volume was adjusted to a total of 750 μL with NH4HCO3. The sample was incubated for 6 hours at 37° C. Chymotrypsin digests were by dissolving chymotrypsin in 1M HCL. A 50 μL volume of this chymotrypsin stock solution was added to added to 500 μL of the aforementioned final sample along with 10% (v/v) of CaCl2 (100 mM stock). NH4HCO3 buffer was then added to bring the total reaction volume to 750 μL. Chymotrypsin digests were incubated for 16 hours at 30° C. Following digest by either trypsin or chymotrypsin, reactions were lyophilized to dryness overnight and then resuspended in a minimal amount of HPLC grade water prior to LC MS analyses.
A Symmetry C18 HPLC column (Waters, Franklin, Mass.; 3.5 μm; 4.6×75 mm) and a Waters Alliance liquid chromatography system (Waters 2695; Franklin, Mass.) coupled to a Micromass single quadropole mass detector (Micromass ZMD; Manchester, UK) were used to analyze fragments from trypsin or chymotrypsin digested human Prx1. The mobile phase contained 0.1% of formic acid throughout the run and the flow rate was 0.35 ml/min. […]

[2] = biological target: T3, Anaplastic Lymphoma Kinase (ALK) (Homo sapiens, UniProt Q9UM73); test: ALK kinase activity (summary Table 27); assay type: biochemical
T3 construct: illustrates the kinase domain of ALK (residues 1058-1623) which was used in these experiments; purchased Millipore; host or cells: Sf21 insect cells (baculovirus)
T3 sequence (Q9UM73 1058-1620 limits assumed): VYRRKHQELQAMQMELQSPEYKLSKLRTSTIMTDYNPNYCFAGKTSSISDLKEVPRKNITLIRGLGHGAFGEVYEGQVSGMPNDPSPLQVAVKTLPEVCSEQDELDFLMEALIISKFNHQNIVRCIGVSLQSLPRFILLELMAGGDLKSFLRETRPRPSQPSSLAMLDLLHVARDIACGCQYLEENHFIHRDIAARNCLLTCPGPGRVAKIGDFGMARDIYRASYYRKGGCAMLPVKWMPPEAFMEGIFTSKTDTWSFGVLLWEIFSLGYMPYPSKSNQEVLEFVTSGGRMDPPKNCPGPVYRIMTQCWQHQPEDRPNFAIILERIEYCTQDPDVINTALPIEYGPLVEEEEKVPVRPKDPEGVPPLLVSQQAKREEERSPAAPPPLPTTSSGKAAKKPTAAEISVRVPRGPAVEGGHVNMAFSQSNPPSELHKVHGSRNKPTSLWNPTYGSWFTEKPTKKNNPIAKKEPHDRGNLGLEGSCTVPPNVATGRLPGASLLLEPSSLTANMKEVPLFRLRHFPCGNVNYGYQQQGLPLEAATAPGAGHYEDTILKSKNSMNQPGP

Peroxiredoxin (Prx) = biological target: T4, Peroxiredoxin (Prx) (Homo sapiens, UniProt Q06830); test: Peroxiredoxin activity (summary Table 27); assay type: biochemical; details: disrupts active site structure
T4 construct: purchased SigmaAldrich

Recombinant human Trx = biological target: T5, Recombinant human Trx (Homo sapiens, UniProt P10599); test: IEF PAGE of Trx incubated with Tavocept; assay type: binding; design: purchased Sigma (SigmaAldrich); host or cells: E. coli; details: Tavocept 10 mM, 37° C.
T5 sequence (P10599 1-105): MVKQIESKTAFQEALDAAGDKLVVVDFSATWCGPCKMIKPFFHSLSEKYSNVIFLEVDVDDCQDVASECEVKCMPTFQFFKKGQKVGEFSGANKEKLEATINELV

[3] = biological target: human peroxiredoxin 4 (PRX4) (Homo sapiens, UniProt Q13162); test: Tavocept-derived mesna adducts on Prx 4 (MS, X-ray crystallography)
Sequence of human peroxiredoxin 4 (PRX4) (Q13162 79-271 limits assumed): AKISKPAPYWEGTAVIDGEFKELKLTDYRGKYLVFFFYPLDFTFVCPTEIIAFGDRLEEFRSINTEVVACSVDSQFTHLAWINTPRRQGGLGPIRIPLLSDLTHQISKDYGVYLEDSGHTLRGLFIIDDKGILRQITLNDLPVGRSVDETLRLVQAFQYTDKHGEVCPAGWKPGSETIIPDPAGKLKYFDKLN

## O=S(=O)([O-])CCSSCCS(=O)(=O)[O-].[Na+].[Na+] [Tavocept, disodium 2,2′-dithio-bis-ethane sulfonate]
Recombinant human ERCC1
  ERCC1 cysteine xenobiotically modified: Cys238; also recorded: Cys274
[1]; chymotryptic fragment TDKHGEVCPAGW (Cys 173) of human Prx 1
  Tavocept-derived mesna Adduct detected?: Yes
[1]; chymotryptic fragment VCPTEIIAF (Cys 52) of human Prx 1
  Tavocept-derived mesna Adduct detected?: Yes
[1]; tryptic fragment HGEVCPAGWK (Cys 173) of human Prx 1
  Tavocept-derived mesna Adduct detected?: Yes
[2]
  Effect on ALK kinase activity: resulting in inhibition of ALK kinase
Peroxiredoxin (Prx)
  Effect on Prx: resulting in impaired enzyme activity
Recombinant human Trx
  Trx migration on IEF gel: shift in Trx migration
[3]; Mass Spectroscopy after reaction with Tavocept
  number of Tavocept-derived mesna moieties on Prx 4: 2
[3]; X-ray, 2.3 Å, 40 mM Tavocept
  Prx 4 cysteine bound by Tavocept-derived mesna moiety: Cys124
